Results from US11213563B2, “Polypeptide and use thereof” (Genoimmune Therapeutics Co., Ltd., priority 2016, dated 2022).

Assays:
CD8^+ T cells = assay: In vitro stimulation of CD8+ T cells by polypeptide-loaded mature DCs, cell counting; assay type: cell-based, human; settings: CD8+ T cells with polypeptide-specific mature DCs, day 10; 2.5 × 10^6 cells before incubation
Protocol: Peripheral blood mononuclear cells (PBMCs) in 100 mL peripheral blood obtained from a HLA-A0201-positive healthy volunteer were isolated using the Ficoll solution, where CD8^+ T cells among the PBMCs were isolated with CD8 magnetic beads, and monocytes among the PBMCs were incubated by an adherence method.
The CD8^+ T cells from the volunteer in a well were incubated with the mature DCs obtained, along with IL-21, with addition of IL-2 and IL-7 after 3 days' culture and addition IL-2 and IL-7 again at day 5 and day 7 respectively, after which the collected mixture of cells were counted on day 10, for use in the next enzyme-linked immune-spot assay (ELISPOT) and lactate dehydrogenase (LDH) assay.

[1] = tested on: human non-small cell lung adenocarcinoma cell line H2087-polypeptide FILDGLYSV; assay: DC polypeptide vaccine in subcutaneous tumor-modeled NOD/SCID mice; assay type: in vivo; settings: DCs loaded with the polypeptide, intracutaneous, 2 injections; vs DCs loaded with wild-type polypeptide
Protocol: (§1) After isolated with Ficoll solution from 600 to 900 ml anticoagulant peripheral blood from a healthy volunteer, the collected PBMCs in a concentration of 2×10^7 cells/0.5 ml were intraperitoneally injected into each of 300 NOD SCID mice without immune leakage, so as to reconstruct a human immune system in the NOD SCID mice, with the mice after 4 weeks selected for subsequent inoculation of the human non-small cell lung adenocarcinoma cell line H2087-polypeptide […] obtained in 6.2.
(§2) The human non-small cell lung adenocarcinoma cell line H2087-polypeptide […] (SEQ ID NO:1) obtained in 6.2 was incubated in DMEM medium containing 10% fetal calf serum, 100 U/mL penicillin and 100 U/mL streptomycin in an incubator under 37° C. and 5% CO2, and then the cells were centrifuged at 3000 rpm for collection. The collected cells were washed with sterile physiological saline three times, and then diluted appropriately. To 40 μl tumor cell suspension, 10 μl 0.4% […] was added for staining, subsequently the tumor cell suspension in a concentration of 1×10^8 cells/ml was prepared after counting under microscope. 100 μl of the tumor cell suspension was inoculated into each of the NOD/SCID mice by subcutaneous injection at 4 weeks post immune reconstruction in 6.3, with daily observation of the presence/absence of infection at inoculation sites, the increase/decrease of tumor size (in the case of presence of a tumor), and measurement of the major axis (a) and the minor axis (b) of a tumor by a vernier caliper every 2 or 3 days (where the tumor size=a×b×b/2). After 7 days from inoculation, a tumor in a size of rice grain was touchable at the inoculation site. After that, the subcutaneous tumor-modeled NOD/SCID mice (modeled with H2087-polypeptide […] (SEQ ID NO:1)) were treated with a polypeptide+complete Freund's adjuvant vaccine, a polypeptide+DCs vaccine, a lentivirus-infected DCs vaccine and a DC-CTL vaccine respectively, with the tumor size and mouse survival rate observed and recorded every 2 days.
Peripheral blood mononuclear cells (PBMCs) in 100 to 150 mL anticoagulant peripheral blood obtained from a healthy volunteer were isolated with Ficoll solution. The collected PBMCs suspended in the RPMI 1640 medium in a concentration of 2×10^6-3×10^6 cells/ml were incubated at 37° C. for 2 hours, obtaining adherent monocytes which can be induced into DCs, and non-adherent peripheral blood lymphocytes (PBLs) for use.
The subcutaneous tumor-modeled NOD/SCID mice obtained in 6.4 of the example were randomly divided into seven groups as below, with 6 mice per group.
For each of the above seven groups, DCs (respectively loaded with the wild-type polypeptide, the mutant polypeptide or each of five mutant polypeptide's variants) were washed with physiological saline three times and then diluted with the physiological saline to a concentration of (4.0±0.5)×10^7 cells/ml, and 0.1 ml of the resulting diluent (in a dosage of (4.0±0.5)×10^6 cells) was administrated to each inner thigh close to the inguen of each mouse by intracutaneous injection, at one week interval for 2 injections in total. The vital signs of the mice were observed after administration, and the major axis (a) and the minor axis (b) of a tumor were measured by a vernier caliper every 2 days for calculation of tumor size according to a formula of a×b×b/2, with the weight change and survival rate observed and recorded.

[2] = tested on: human non-small cell lung adenocarcinoma cell line H2087-polypeptide FILDGLYSV; assay: Lentivirus-infected DCs vaccine in subcutaneous tumor-modeled NOD/SCID mice; assay type: in vivo; settings: DCs infected with lentivirus expressing the polypeptide, intracutaneous, 2 injections; vs wild-type lentivirus DCs
Protocol: as §1, §2
Peripheral blood mononuclear cells (PBMCs) in 100 to 150 mL anticoagulant peripheral blood obtained from a healthy volunteer were isolated with Ficoll solution. After the collected PBMCs were incubated at 37° C. for 2 hours and the non-adherent PBLs were removed, the adherent monocytes were cultured in the presence of recombinant human granulocyte macrophage colony stimulating factor (rhGM-CSF) and recombinant human interleukin-4 (rhIL-4). […] After 24 hours' incubation, the collected cells with lentivirus-containing medium removed were again incubated in a fresh medium containing 50 ng/ml rhIL-4, 100 ng/ml rh GM-CSF, 100 U/ml IFN-γ and 100 U/ml CD40L in an incubator under 37° C. and 5% CO2 for 48 to 72 hours, so as to induce mature DCs, and then the DCs infected with lentivirus were observed under the fluorescence microscope. The collected mature DCs were washed with physiological saline three times and diluted with the physiological saline to a concentration of (4.0±0.5)×10^7 cells/ml for use. The subcutaneous tumor-modeled NOD/SCID mice obtained in 6.4 of the example 6 were randomly divided into seven groups as below, with 6 mice per group.
The vital signs of the mice were observed after administration, and the major axis (a) and the minor axis (b) of a tumor were measured by a vernier caliper every 2 days for calculation of tumor size according to a formula of a×b×b/2, with the weight change and survival rate observed and recorded.

| Sequence | Total number of cells in the well after incubation (CD8^+ T cells) | Mouse survival period [1] | Tumor growth [1] | Mouse survival period [2] | Tumor growth [2] |
| --- | --- | --- | --- | --- | --- |
| FILDGLYSL [mutant polypeptide's variant, Leucine at position 9] | 1.35 × 10^7 | prolonging the mouse survival period | mitigating tumor growth significantly | prolonging mouse survival period effectively | inhibiting tumor growth |
| FILDGLYSV [mutant polypeptide from COL21A1, Serine at position 45 mutated into Leucine] | 1.22 × 10^7 | prolonging the mouse survival period | mitigating tumor growth significantly | prolonging mouse survival period effectively | inhibiting tumor growth |
| FLLDGLYSL [mutant polypeptide's variant, Leucine at positions 2 and 9] | 1.03 × 10^7 | prolonging the mouse survival period | mitigating tumor growth significantly | prolonging mouse survival period effectively | inhibiting tumor growth |
| FLLDGLYSV [mutant polypeptide's variant, Leucine at position 2] | 1.42 × 10^7 | prolonging the mouse survival period | mitigating tumor growth significantly | prolonging mouse survival period effectively | inhibiting tumor growth |
| FMLDGLYSL | 1.66 × 10^7 | prolonging the mouse survival period | mitigating tumor growth significantly | prolonging mouse survival period effectively | inhibiting tumor growth |
| FMLDGLYSV | 1.71 × 10^7 | prolonging the mouse survival period | mitigating tumor growth significantly | prolonging mouse survival period effectively | inhibiting tumor growth |
